Measurements from a melting point compilation (Tetko et al.; mined from patent text by program, amines drawn as free bases though some values may be those of a salt).

melting point [°C] | Structure (SMILES)
278 to 280 | CCN1CCN(Cc2ccc(-c3nc4cc(OC)cc(OC)c4c(=O)[nH]3)cc2)CC1
157 | O=C(C=Cc1ccncc1)c1ccc(F)cc1
204 to 205 | CN(C)CCn1c(=O)c2cc([N+](=O)[O-])ccc2c2cnc3cc4c(cc3c21)OCO4
89 to 93 | COC(=O)c1ccc2c(c1)C=CC(=O)CO2
143 to 147 | COC(=O)N[C@H]1CC[C@H](CCN2CCN(c3cccc(Cl)c3Cl)CC2)CC1
284 | CC(C)(C#N)c1cc(O)cc2cc(-c3ccc(O)cc3)oc12
114 to 116 | CC(C)(C(=O)c1ccc(N2CCOCC2)cc1)N1CCOCC1
255 to 256 | CCn1nc(-c2cnc(N)nc2-c2ccccc2)ccc1=O
130 to 133 | O=C(Oc1ccc(Oc2ccccc2)cc1)N1CCC(O)CC1
205 to 210 | N#CC(C(=O)Nc1ccccc1)C(=O)c1nn(-c2ccccc2)c2c1CSc1ccc(N=CN3CCOCC3)cc1-2 (stereo unspecified)
147 to 152 | Cc1nn(-c2cc(O)c(Cl)cc2F)c(=O)n1C(F)F
117 to 118 | O[C@H](CCc1cccnc1)COc1ccc(-c2ccc(Cl)cc2)cc1
100 | COC(=O)[C@@H]1C[C@@H](O)CN1S(=O)(=O)c1ccc(Cl)c(COc2cccc3c(C)cc(C)nc23)c1Cl
266 | COc1ccc2[nH]cc(C=C3SC(=S)N(CC(=O)O)C3=O)c2c1
101 to 105 | Cc1ccc(/C=C/c2sccc2S(=O)(=O)Nc2onc(C)c2Br)cc1
192 to 194 | Oc1c(Br)cc(F)cc1Cc1cc(Cl)cc(Cc2cc(F)cc(Br)c2O)c1O
185 to 186 | CC(C)N1C(=O)C(NC(=O)Cc2cc(Cl)cc(Cl)c2)C(=O)N(CC(F)(F)F)c2ccccc21 (stereo unspecified)
69 to 70 | COC(=O)C(CCSC)NC(=O)c1ccc(NC(=O)Cc2cn(C)cn2)cc1-c1ccccc1 (stereo unspecified)
52 to 55 | CCCCCCCCCCCCCCCCCC(=O)NCCOC(=O)CCc1cc(C(C)(C)C)c(O)c(C(C)(C)C)c1
78 | CCC12CCC(c3ccc(Cl)cc3)(OC1)OC2
283 | COc1ccc(C(=O)Nc2ccc3ccc(C#N)nc3n2)cc1
45 to 46 | O=[N+]([O-])CCc1cccc2ccccc12
166 to 169 | CN1CCN(CCCN2c3ccc(F)cc3Sc3ccc(S(=O)(=O)N(C)C)cc32)CC1
238 | CNC(=O)Cn1c(-c2ccc(Cl)cc2)nc2cccnc21
50 to 55 | CCONC(=O)c1ccc(-c2cccc(CN(C)CCCc3ccccc3)c2)cn1

melting point [°C] | Structure (SMILES)
121 | CCCCN1CCC(COC(=O)c2cc(Cl)c(N)cc2OC)C(O)C1 (stereo unspecified)
258 | Cc1ccc(S(=O)(=O)N2CCN(S(=O)(=O)c3ccc(C)cc3)[C@@H](c3ccccc3)C2)cc1
134 to 135 | O=[N+]([O-])c1cc2oc(-c3ccccc3)nc2cc1N1CCOCC1
98 to 99 | C=CCNC(=O)C1=Cc2c1ccc(OC)c2OC
152 to 153 | O=C1NC(=O)c2ccc(-c3ccc(F)cc3)cc2/C1=C/Nc1ccc(CN2CCCC2)cc1
132 to 138 | CCC1Cc2cc(OCC(=O)O)c(Cl)cc2C1=O (stereo unspecified)
147 to 149 | FC(F)(F)c1ccnc(Oc2ccc(CCNc3ncnc4nccnc34)cc2)c1
135 to 137 | CC(C)(C)OC(=O)Nc1ccc(F)c(F)c1
97 | CCN1C(=O)[C@@H](N)COc2ccccc21
268 to 269 | O=C(O)c1ccc(-c2ccc3cc(CCCO)c(C45CC6CC(CC(C6)C4)C5)cc3c2)cc1
197 to 198 | CCc1c(F)c(F)c(F)c2c1c(=O)c(C(=O)O)cn2C1CC1
178 to 181 | O=C(O)c1cccc(S(=O)(=O)CCO)c1[N+](=O)[O-]
110 to 113 | CCc1ncnc2ccc(I)cc12
175 to 179 | O=C(Nc1cc(-c2ccnc3c(C(=O)c4cccs4)cnn23)ccc1F)c1ccncc1
312 | O=c1ccc2cccc(Oc3cc(-c4ccc(C(F)(F)F)cc4)ncn3)c2[nH]1
108 | Cc1cccc(C(=O)c2ccc(Cl)cc2)c1
80.5 to 81 | CCCCCCCCCCCCC(O)CC#CCCCC(=O)O (stereo unspecified)
144 to 146 | CCc1cn(C2CC(O)C(CNCc3ccccc3Br)O2)c(=O)[nH]c1=O (stereo unspecified)
139 to 141 | COc1cccc(C(=O)Nc2ccc(C(=O)c3ccccc3)cc2)c1
188 | CCCc1nc2c(NOC)nc(C(c3ccccc3)(c3ccccc3)c3ccccc3)nc2n1CO
141 to 144 | COc1cc(C(=O)N2Cc3cccn3Cc3ccccc32)ccc1-n1c(C)ccc1C
220 | Cn1c(C(=O)O)cc(=O)c2oc3ccccc3c(=O)c21
175 to 177 | Cc1c(C(N)=O)oc2ccc(Cc3cccnc3)cc12
192 to 194 | O=C1NC(=O)C2(CCOc3c([N+](=O)[O-])cc(F)cc32)S1 (stereo unspecified)
133 to 136 | COc1ccc([N+](=O)[O-])c(Oc2cc(C)[nH]n2)n1

melting point [°C] | Structure (SMILES)
159 to 161 | COCC(=O)OC(CC1CC1)c1ccc(Cl)c2nc3n(c12)CCCN3c1ccc(Cl)cc1Cl (stereo unspecified)
228 to 229 | COc1ccc2c(CCC(=O)O)nnc(-c3nccs3)c2c1
112 to 116 | Oc1ccc(C2COc3cc(O)ccc3C2c2ccc(OCCN3CCCC3)cc2)cc1 (stereo unspecified)
125 to 126 | O=C(c1ccc2c(c1)OCC(CN1CCOCC1)N2)N1CCOCC1 (stereo unspecified)
176 to 177 | O=C(O)C(=O)c1ccc(OCCOc2cc3ccccc3cc2OCCO)cc1
246 | O=c1ccn([C@H]2[C@H](O)[C@H](O)CC[C@H]2O)c(=O)[nH]1 (racemic)
90 to 100 | CSc1nnc(C(C)(C)C)c(=O)n1C
158 to 159 | CN1CCN(c2ccc(F)cc2C=C2CCCN(c3ccc(Cl)cc3)C2=O)CC1
168 to 170 | CCSc1nc2c(N)nc(-c3ccncc3)nc2[nH]1
196 to 198 | CCOc1cnn(-c2cc(-c3ccnc(Nc4cccc(Cl)c4)n3)ccn2)c(=O)c1Cl
103 to 104 | CN1C(=O)C(CCCN2CCN(c3ccc(F)cc3)CC2)Sc2ccccc21 (stereo unspecified)
49 to 51 | C#CC(C)OS(=O)(=O)c1ccc(C)cc1 (stereo unspecified)
155 to 156 | CCOC(=O)C(C#N)=CNc1ccc(CC)cn1
217 to 221 | CC(C)(C)OC(=O)Nc1cc(N2CCS(=O)(=O)CC2)c(C#Cc2ccccc2)cc1[N+](=O)[O-]
195 to 197 | COC(=O)C(Cc1ccc(O)cc1)NC(=O)C(Cc1ccccc1)NC(=O)c1ccc(OC)cc1 (stereo unspecified)
178 to 182 | Cc1ccc(Sc2c(N)cc(C(=O)O)cc2S)cc1
117 to 119 | CCc1nc2c(cnn2CC)c(NC2CCOCC2)c1CNC(=O)c1cccc(C(=O)NCc2ccc(OC)c(-c3cccc(CN4CCN(C)CC4)c3)c2)c1
165 to 167 | CSc1ccc(CC(=O)C(=O)O)cc1
119 to 122 | CSc1ncc(C#N)c(NC2CCCC2)n1
203 | CCCc1c(C(=O)NC2CC2)nnn1-c1ccc(C(=O)NCC)cc1O
> 310 | CC(=O)Nc1ccc(-c2ncc(C(=O)O)c(O)n2)cc1
119 to 121 | COc1cc(OC)cc(C2(Cl)C(C)(C)C2(C)C)c1
152 to 156 | NC(=O)c1ncc(Cl)cc1N
62 to 63 | C#CCN(CC#C)c1cc(OC)c(OC)c(OC)c1
99 to 102 | CC(Br)c1ccc2c(-c3ccccc3)onc2c1 (stereo unspecified)

melting point [°C] | Structure (SMILES)
193 to 194 | O=C1Nc2c(cc(F)c(F)c2F)C1=O
199 to 201 | COC1=NC2C=C(C(=O)NCC3CC3)C(NC(=O)c3cc(C(F)(F)F)nn3-c3ncccc3Cl)=C(Cl)C2S1 (stereo unspecified)
166 to 169 | CNCC(=O)N(C)Cc1ccc(CCn2cnc3cc(-c4ccc(Cl)cc4)sc3c2=O)cc1
116 to 122 | S=C(NCCCC1(Cl)CC=CS1)Nc1ccccn1 (stereo unspecified)
62 to 64 | CCCc1c(OCCCOc2cc(O)c(-c3ccc(F)cc3)cc2CC)cccc1Oc1cc(F)ccc1C(=O)O
191 to 193 | Cc1cc(C)c(Nc2nc(C)ncc2S(=O)(=O)c2ccc(F)cc2)c(C)c1
201 | Cn1c(=O)c2c(ncn2CCN2CCC(c3c[nH]c4ccccc34)CC2)n(C)c1=O
271 to 272 | COc1cc(OC)c2c(=O)[nH]c(-c3ccc(OC)c(-c4ccc(C(=O)N(C)C)cc4Cl)n3)nc2c1
108 to 109 | CCCCCCCCS(=O)(=O)c1ccc(CC(N)(CO)CO)cc1
69 to 70 | Cc1ccc(C=C2CCc3cc(OCCc4c[nH]cn4)ccc3C2=O)s1
142 to 143 | Cc1cc(C)c(C[C@@H](C(=O)[C@H](Cc2c(C)cc(C)cc2C)N2C(=O)c3ccccc3C2=O)N2C(=O)c3ccccc3C2=O)c(C)c1
153 to 155 | CCOC(=O)c1[nH]c(=O)c(CC(C)C)[n+]([O-])c1OC
136 to 137 | NC(=O)N(O)CC=Cc1ccoc1
200 to 202 | Cc1cccc2c1C(=O)N(C)CC(=O)N2
145 to 146 | CC(C#Cc1cccc(C2=NCC(c3ccccc3)O2)c1)N(O)C(N)=O (stereo unspecified)
129 to 131 | CCCCNC(=S)Nc1ccc(NNC=O)cc1
98 to 100 | OCCc1ccc2c(c1)sc1ccc(Cl)cc12
109 to 110 | CCCCc1nn(-c2ccc(C(F)(F)F)cn2)cc1CCCOc1nn(CC)cc1CC(=O)O
125 to 127 | CCCN(CCC)C(=O)Cn1c(-c2ccc(C)s2)nc2cccnc21
168 to 170 | CCOC(=O)c1c(C)nc2c(c1NCCCN1CCOCC1)NC(=O)CN2
116 to 119 | CN(C)C(=O)C(C)(C)n1cc(C#N)c(-c2ccccc2)n1
135 to 137 | CC(C)(C)c1cc(-c2nn(CC3CC3)c3ncccc23)cc(C(C)(C)C)c1O
169 to 170 | CC1(C(=O)O)CCc2c(-c3ccc(Cl)cc3)noc2C1 (stereo unspecified)
64 | CC(C)(C)OC(=O)N1CCC(CO)(c2ccccc2)CC1

Structure (SMILES) | melting point [°C]
CN1Cc2c(C(=O)NN)ncn2-c2ccc(F)cc2C1=O | 288 to 290
O=[N+]([O-])N=C1NCCCN1CC1CCOC1 (stereo unspecified) | 87.5 to 90.8
